Experimental data as given in ChEMBL document CHEMBL4725351, “Cyclic Derivative of Host-Defense Peptide IDR-1018 Improves Proteolytic Stability, Suppresses Inflammation, and Enhances In Vivo Activity” (J Med Chem, 2020).
Converted amounts (≈) assume the structure as drawn. The source made the active and inactive calls. The rule behind the calls is not given here. Where a SMILES comes first, the peptide text is derived from it. Bridges are numbered along the chain shown (N, C = ends).

How the values were obtained:
[1] = tested on: Staphylococcus aureus; experiment: Antibacterial activity against methicillin-resistant Staphylococcus aureus SAP0017 measured after overnight incubation by microtitre plate based spectrophotometric method; format: functional
[2] = tested on: Staphylococcus aureus; experiment: Antibacterial activity against methicillin-resistant Staphylococcus aureus USA300 LAC measured after overnight incubation by microtitre plate based spectrophotometric method; format: functional
[3] = tested on: Pseudomonas aeruginosa; experiment: Antibacterial activity against Pseudomonas aeruginosa PA14 measured after overnight incubation by microtitre plate based spectrophotometric method; format: functional
[4] = tested on: Pseudomonas aeruginosa; experiment: Antibacterial activity against Pseudomonas aeruginosa PAO1 measured after overnight incubation by microtitre plate based spectrophotometric method; format: functional
[5] = tested on: Escherichia coli; experiment: Antibacterial activity against Escherichia coli ATTC 489 measured after overnight incubation by microtitre plate based spectrophotometric method; format: functional
[6] = tested on: Acinetobacter baumannii; experiment: Antibacterial activity against Acinetobacter baumannii 5015 measured after overnight incubation by microtitre plate based spectrophotometric method; format: functional
[7] = tested on: Acinetobacter baumannii; experiment: Antibacterial activity against Acinetobacter baumannii 17918 measured after overnight incubation by microtitre plate based spectrophotometric method; format: functional
[8] = tested on: Klebsiella pneumoniae; experiment: Antibacterial activity against Klebsiella pneumoniae ATTC 13883 measured after overnight incubation by microtitre plate based spectrophotometric method; format: functional
[9] = tested on: Staphylococcus aureus; experiment: Antibiofilm activity against methicillin-resistant Staphylococcus aureus SAP0017 incubated for 24 hrs under shaking condition by turbidometric method; format: functional
[10] = tested on: Staphylococcus aureus; experiment: Antibiofilm activity against methicillin-resistant Staphylococcus aureus USA300 LAC incubated for 24 hrs under shaking condition by turbidometric method; format: functional
[11] = tested on: Pseudomonas aeruginosa; experiment: Antibiofilm activity against Pseudomonas aeruginosa PA14 incubated for 24 hrs under shaking condition by turbidometric method; format: functional
[12] = tested on: Pseudomonas aeruginosa; experiment: Antibiofilm activity against Pseudomonas aeruginosa PAO1 incubated for 24 hrs under shaking condition by turbidometric method; format: functional
[13] = tested on: Escherichia coli; experiment: Antibiofilm activity against Escherichia coli ATTC 489 incubated for 24 hrs under shaking condition by turbidometric method; format: functional
[14] = tested on: Acinetobacter baumannii; experiment: Antibiofilm activity against Acinetobacter baumannii 5015 incubated for 24 hrs under shaking condition by turbidometric method; format: functional
[15] = tested on: Acinetobacter baumannii; experiment: Antibiofilm activity against Acinetobacter baumannii 17918 incubated for 24 hrs under shaking condition by turbidometric method; format: functional
[16] = tested on: Klebsiella pneumoniae; experiment: Antibiofilm activity against Klebsiella pneumoniae ATTC 13883 incubated for 24 hrs under shaking condition by turbidometric method; format: functional
[17] = tested on: Staphylococcus aureus; experiment: Antibiofilm activity against methicillin-resistant Staphylococcus aureus SAP0017 assessed as reduction in biofilm biomass incubated overnight by crystal violet staining assay; format: functional
[18] = tested on: Staphylococcus aureus; experiment: Antibiofilm activity against methicillin-resistant Staphylococcus aureus USA300 LAC assessed as reduction in biofilm biomass measured after overnight incubation by crystal violet staining assay; format: functional
[19] = tested on: Pseudomonas aeruginosa; experiment: Antibiofilm activity against 24 hrs preformed Pseudomonas aeruginosa PA14 biofilm assessed as reduction in biofilm viability at 7.2 to 30.3 uM by TTC assay relative to control; format: functional; conditions: dose microM 7.2-30.3
[20] = tested on: Pseudomonas aeruginosa; experiment: Antibiofilm activity against 24 hrs preformed Pseudomonas aeruginosa PAO1 biofilm assessed as reduction in biofilm viability at 7.2 to 30.3 uM by TTC assay relative to control; format: functional; conditions: dose microM 7.2-30.3
[21] = tested on: Escherichia coli; experiment: Antibiofilm activity against 24 hrs preformed Escherichia coli ATTC 489 biofilm assessed as reduction in biofilm viability at 7.2 to 30.3 uM by TTC assay relative to control; format: functional; conditions: dose microM 7.2-30.3
[22] = tested on: Acinetobacter baumannii; experiment: Antibiofilm activity against 24 hrs preformed Acinetobacter baumannii 5015 biofilm assessed as reduction in biofilm viability at 7.2 to 30.3 uM by TTC assay relative to control; format: functional; conditions: dose microM 7.2-30.3
[23] = tested on: Acinetobacter baumannii; experiment: Antibiofilm activity against 24 hrs preformed Acinetobacter baumannii 17918 biofilm assessed as reduction in biofilm viability at 7.2 to 30.3 uM by TTC assay relative to control; format: functional; conditions: dose microM 7.2-30.3
[24] = tested on: Klebsiella pneumoniae; experiment: Antibiofilm activity against 24 hrs preformed Klebsiella pneumoniae ATTC 13883 biofilm assessed as reduction in biofilm viability at 7.2 to 30.3 uM by TTC assay relative to control; format: functional; conditions: dose microM 7.2-30.3
[25] = target: Trypsin (Homo sapiens, UniProt P07477+P07478+P35030); experiment: Stability of the compound in pH 8.2 ammonium bicarbonate buffer assessed as trypsin (unknown origin)-mediated drug degradation at 20 ug/ml measured after 120 mins by RP-HPLC analysis; format: ADME, protein assay; conditions: trypsin in ammonium bicarbonate buffer, pH 8.2, at 20 µg/mL, read-out: Drug degradation
[26] = Aggregation property of the compound in water at 1 mg/ml by turbidimetric method; format: physicochemical; conditions: buffer
[27] = Aggregation property of the compound in saline at 1 mg/ml by turbidimetric method; format: physicochemical; conditions: buffer
[28] = Aggregation property of the compound in 5% dextrose at 1 mg/ml by turbidimetric method; format: physicochemical
[29] = Aggregation property of the compound in RPMI medium with 1% FBS at 1 mg/ml by turbidimetric method; format: physicochemical
[30] = Aggregation property of the compound in sodium citrate solution at 10 mM by turbidimetric method; format: physicochemical; conditions: 10000 µM
[31] = Aggregation property of the compound in sodium phosphate solution at 10 mM by turbidimetric method; format: physicochemical; conditions: 10000 µM
[32] = Aggregation property of the compound in sodium nitrate solution at 10 mM by turbidimetric method; format: physicochemical; conditions: 10000 µM
[33] = Aggregation of the compound in human PBMC assessed as amorphous morphology at 50 ug/ml measured after 4 hrs by microscopic analysis; format: ADME, tissue-based; conditions: dose 50 µg/ml
[34] = Cytotoxicity against human PBMC assessed as reduction in cell viability at 100 ug/ml measured after 24 hrs by LDH assay; format: tissue-based; conditions: dose 100 µg/ml
[35] = tested on: PBMC; experiment: Immunomodulatory activity in human PBMC assessed as increase in MCP1 production at 25 ug/ml measured after overnight incubation by ELISA; format: functional, tissue-based; conditions: dose 25.0 µg/ml
[36] = tested on: PBMC; experiment: Immunomodulatory activity in human PBMC assessed as change in TNFalpha production at 25 ug/ml measured after overnight incubation by ELISA; format: functional, tissue-based; conditions: dose 25.0 µg/ml
[37] = tested on: PBMC; experiment: Immunomodulatory activity in human PBMC assessed as increase in IL-1RA production at 25 ug/ml measured after overnight incubation by ELISA; format: functional, tissue-based; conditions: dose 25.0 µg/ml
[38] = tested on: PBMC; experiment: Immunomodulatory activity in human PBMC assessed as reduction in LPS-induced TNFalpha production at 25 ug/ml measured after overnight incubation by ELISA; format: functional, tissue-based; conditions: dose 25.0 µg/ml
[39] = Immunomodulatory activity in human PBMC assessed as increase in LPS-induced MCP1 production at 25 ug/ml measured after overnight incubation by ELISA; format: functional; conditions: dose 25 µg/ml
[40] = Immunomodulatory activity in human PBMC assessed as increase in LPS-induced IL10 production at 25 ug/ml measured after overnight incubation by ELISA; format: functional; conditions: dose 25 µg/ml
[41] = Immunomodulatory activity in human PBMC assessed as increase in LPS-induced IL1RA production at 25 ug/ml measured after overnight incubation by ELISA; format: functional; conditions: dose 25 µg/ml
[42] = Toxicity in CD1 mouse assessed as redness under the skin at 10 mg/kg, sc measured after 16 hrs; format: organism-based; conditions: in vivo
[43] = tested on: Staphylococcus aureus; experiment: Antibacterial activity against Staphylococcus aureus USA300 LAC infected in CD1 mouse assessed as reduction in dermonecrosis at 7.5 mg/kg, sc administered at infection site measured after 3 days by caliper method relative to control; format: functional; set-up: scale not given: the % may be the effect or the level left; conditions: time 3 day
[44] = tested on: Staphylococcus aureus; experiment: Antibacterial activity against Staphylococcus aureus USA300 LAC infected in CD1 mouse assessed as dermonecrosis area at 7.5 mg/kg, sc administered at infection site measured after 3 days by caliper method (Rvb > 75 mm2); format: functional; conditions: time 3 day
[45] = tested on: Staphylococcus aureus; experiment: Antibacterial activity against Staphylococcus aureus USA300 LAC infected in CD1 mouse assessed as reduction in bacterial load at 7.5 mg/kg, sc administered at infection site measured after 3 days by colony counting method relative to control; format: functional; conditions: time 3 day

`CC[C@H](C)[C@@H]1NC(=O)[C@H](CCCNC(=N)N)NC(=O)[C@H](C(C)C)NC(=O)[C@H](C)NC(=O)[C@H](C(C)C)NC(=O)[C@H]([C@@H](C)CC)NC(=O)[C@H](CC(C)C)NC(=O)[C@H](CCCNC(=N)N)NC(=O)[C@H](C(C)C)NC(=O)CC[C@@H](C(N)=O)NC(=O)[C@H](CCCNC(=N)N)NC(=O)[C@H](CCCNC(=N)N)NC(=O)[C@H](Cc2c[nH]c3ccccc23)NC1=O` (VRLIVAVRIWRRE-NH2; lactam N-13) gave an MIC [1] of 15.1 µM (≈ 24.9 µg/mL), an MIC [2] of 15.1 µM (≈ 24.9 µg/mL) and an MIC [3] of 30.3 µM (≈ 49.9 µg/mL). For the same compound, the MIC [4] was 30.3 µM (≈ 49.9 µg/mL), the MIC [5] was 30.3 µM (≈ 49.9 µg/mL) and the MIC [6] was 15.1 µM (≈ 24.9 µg/mL). It also gave an MIC [7] of 15.1 µM (≈ 24.9 µg/mL), an MIC [8] of 15.1 µM (≈ 24.9 µg/mL) and an MBEC [9] of 9.7 µM. It also gave an MBEC [10] of 7.2 µM, an MBEC [11] of 38.8 µM and an MBEC [12] of 38.8 µM. It also gave an MBEC [13] of 38.8 µM, an MBEC [14] of 15.1 µM and an MBEC [15] of 15.1 µM. It also gave an MBEC [16] of 9.7 µM, an MBIC [17] of 7.2 µM and an MBIC [18] of 7.2 µM. The Activity [19] was 70%, the Activity [20] was 70% and the Activity [21] was 70%. For the same compound, the Activity [22] was 70%, the Activity [23] was 70% and the Activity [24] was 70%. For the same compound, the metabolised at 2 h, 20 ug/ml [25] was 30%, the Activity [26] was “Not Active” and the Activity [27] was “Not Active”. The Activity [28] was “Not Active”, the Activity [29] was “Active” and the Activity [30] was “Not Active”. The Activity [31] was “Not Active”, the Activity [32] was “Not Active” and the Activity [33] was “Not Active”. For the same compound, the Activity [34] was “Toxic”, the Activity [35] was “Active” and the Activity [36] was “inactive”. The Activity [37] was “Active”, the Activity [38] was “Active” and the Activity [39] was 35%. For the same compound, the Activity [40] was 30%, the Activity [41] was 35% and the Activity [42] was “Toxic”. The Activity [43] was 90%, the Activity [44] was 5 mm2 and the “fold change (FC)” value [45] was 1000.
